Results reported in US20070065850A1, “Method for diagnosis of heart failure” (OSAKA UNIVERSITY, priority 2005, published 2007).
d = 2'-deoxy (DNA)

Experiments:
[1] = tested on: cultured neonatal rat cardiac myocytes; test: CHOP expression by real-time quantitative RT-PCR after treatment with pharmacological ER stress inducers; type: cell-based; conditions: for CHOP/GAPDH: cultured cardiac myocytes 48 hours after treatment with ER stress inducer, untreated 1.0, mean±SEM
Method: Primary cultures of cardiac myocytes were prepared from neonatal rat hearts as described previously (13). All procedures were performed in accordance with the guidline of Osaka University School of Medicine with regard to animal care and the “Position of the American Heart Association on Research Animal Use.”
(§1) RT-PCR of human and rat heart samples was performed according to the Omniscript Reverse Transcription handbook (QIAGEN Inc.). The human and rat primers and probes used for quantification of BNP, GRP78, CHOP, and GAPDH were all designed according to the manufacturer's protocol (Applied Biosystems, https://www.appliedbiosystems.com/catalog/). Real-time quantitative RT-PCR was performed with an ABI PRISM 7700 Sequence Detection System (Applied Biosystems) by the relative standard curve method. The target amount was determined from the relative standard curves constructed with serial dilutions of the control total RNA.

cardiac myocytes = test: MTT assay (cell viability); type: cell-based, rat; conditions: tunicamycin for 48 hours
Method: Cardiac myocytes were treated with tunicamycin for 48 hours, after which cell viability was assessed by MTT assay according to the manufacturer's instructions (Cell Counting Kit-8, Wako Pure Chemical Industries, Ltd.). The percentage of viable cells was determined by taking the value for untreated cells as 100%.
(§2) The inventors designed 3 different short interfering RNAs (siRNA) with 3′ dTdT overhangs to knock down CHOP mRNA (CHOP siRNA-1: 5′-CCUUCACUACUCUUGACCC-3′ (SEQ ID NO. 1), siRNA-2: 5′-GAUCAAGGAAGAACUAGGA-3′ (SEQ ID NO. 2), siRNA-3: 5′-GGAGCAGGAGAAUGAGAGG-3′(SEQ ID NO. 3) and ordered Dharmacon Inc. to synthesize them. After rat cardiac myocytes were isolated, they were incubated in Dulbecco's modified Eagle's medium (Invitrogen Corporation) Opti-MEM (Invitrogen Corporation), siRNA oligonucleotides (CHOP siRNA 1-3) (60 nM) and Optifect (Invitrogen Corporation) were added on the day of cardiac myocyte isolation. As a negative control, cells were transfected with siRNA against firefly luciferase from Photinus pyralis (GL2 siRNA) (15). Messenger RNA and protein levels of CHOP were measured 24 and 48 hrs after the transfection of CHOP siRNA, respectively.

CHOP = CHOP protein level by immunoblotting after siRNA transfection; type: cell-based, rat; conditions: cardiac myocytes treated with tunicamycin; protein measured 48 hrs after transfection; actin internal control
Method: Immunoblotting was performed as described previously (13). Primary antibodies targeting CHOP (sc-793) and actin (sc-1615) were purchased from Santa Cruz Biotechnology. Forty eight hours after the treatment of neonatal rat cardiac myocytes with tunicamycin (Sigma-Aldrich), cardiac myocytes were harvested.
as §2

[2] = tested on: neonatal rat cardiac myocytes; test: Apoptotic cell assay (TUNEL); type: cell-based
Method: The terminal deoxynucleotidyl transferase-mediated dUTP nick end labeling (TUNEL) assay was performed as described previously (7). Forty eight hours after the treatment of neonatal rat cardiac myocytes with tunicamycin (Sigma-Aldrich), cells were subjected to TUNEL staining. The TUNEL-positive cardiac myocytes counted in DAPI-positive cardiac myocytes (n=100, 5 times) were expressed as a percentage.
as §2

CHOP mRNA = CHOP mRNA knockdown by siRNA transfection (RNA interference), real-time quantitative RT-PCR; type: cell-based, rat; conditions: siRNA 60 nM, mean±SEM
Method: as §1
as §2, with “As a negative control, cells were transfected with siRNA against firefly luciferase from Photinus pyralis (GL2 siRNA) (15).” left out, “respectively. […]” for “respectively.”

`C[C@H]1CCC/C=C/[C@@H]2C[C@H](O)C[C@H]2[C@H](O)/C=C/C(=O)O1` [brefeldin A] was tested, and the CHOP/GAPDH [1] was 8.1±0.7.

`C/C=C(/C)C(=O)O[C@H]1C(C)=C2[C@H]([C@@H]1OC(=O)CCCCCCC)[C@@](C)(OC(C)=O)C[C@H](OC(=O)CCC)[C@@]1(O)[C@H]2OC(=O)[C@@]1(C)O` [thapsigargin] showed a CHOP/GAPDH [1] of 19.0±0.3.

For “CHOP siRNA-2: siRNA with 3′ dTdT overhangs to knock down CHOP mRNA: 5′-GAUCAAGGAAGAACUAGGA-3′ (SEQ ID NO. 2) (RNA, 3' dTdT, backbone not given here)”, the “Effect of siRNA on the tunicamycin-induced decrease of cell viability” value (cardiac myocytes; siRNA 60 nM) was “attenuated”, the “protein level of CHOP after transfection of siRNA” value (CHOP) was “almost completely suppressed” and the “Effect of siRNA on the tunicamycin-induced increase of TUNEL-positive cardiac myocytes” value ([2]; tunicamycin 48 hours, siRNA 60 nM) was “attenuated”. For the same compound, the “CHOP/GAPDH after transfection of siRNA, induction by brefeldin A” value (CHOP mRNA; brefeldin A alone 8.1±0.7) was 2.2±0.8 and the “CHOP/GAPDH after transfection of siRNA, induction by thapsigargin” value (CHOP mRNA; thapsigargin alone 19.0±0.3) was 2.1±1.0.

In the case of tunicamycin, the “Cell viability (MTT assay)” value (cardiac myocytes; untreated cells as 100%) was “decreased”, the “CHOP expression (real-time quantitative RT-PCR)” value ([1]; cultured neonatal rat cardiac myocytes treated with tunicamycin, normalized for GAPDH, compared with 0 hour) was “increase” and the “Number of TUNEL-positive cardiac myocytes” value ([2]; 48 hours after treatment with tunicamycin, vs. no treatment) was “increased”.
